Blank lines part the entries; values can stand above or below the compound they belong to. Where no end group is shown, it is not given here.
How the values were obtained:
[1] = tested on: human duodenal organoid cultures; experiment: Human duodenal organoid secretion assay: CCK8 and ppCCK(21–44) in supernatants and lysates by LC-MS/MS; type: cell-based; details: 10 μM forskolin + 1 mM glucose vs 1 mM glucose alone, 1 h, 2D human intestinal organoids; similar for both peptides; n = 12 from six experiments in duplicate
Description: Human duodenal organoid cultures were established for secretion assays using our established protocol.[16] To improve peptide yield, the cultures were grown in a 6-well plate format, and 400 μL of secretion buffer (0.001% fatty acid-free BSA and 1 mM glucose in saline buffer[16]) was used in the experiments.
Method development, validation, and calibration/quantitation samples were prepared by spiking working solutions of CCK8, CCK33, and ppCCK(21–44) in organoid secretion buffer. For initial CCK detection, lysed organoid cultures were prepared using 6 M guanidine hydrochloride (aq) and snap-frozen prior to extraction.
Based on the experimental design results, the extraction of CCK peptides from organoid lysate and secretion samples was adjusted from previous methods,[16],[17] as per the following steps. […]
To assess CCK secretion, we cultured human intestinal organoids in 2D cultures[16] and collected supernatants and cell lysates after 1 h incubation in either 1 mM glucose or 1 mM glucose and 10 μM forskolin, a known strong stimulus for secretion of a number of gut hormones, including CCK.[17],[18] We were unable to reliably detect sulfated CCK8 in supernatants; however, desulfated CCK8 and ppCCK(21–44) were detected under both culture conditions. […]

[2] = tested on: cholecystokinin (CCK8) (26–33), non-sulfated enzyme immunoassay kit; details: reported for the kit; ref EK-069-04, Phoenix Peptide; cited from earlier work
Description: (§1) A cholecystokinin (CCK8) (26–33), non-sulfated enzyme immunoassay kit (EK-069-04, Phoenix Peptide, Germany), with 100% reported cross-reactivity with sulfated and non-sulfated CCK8 as well as CCK33 and gastrin, was used for assay validation. The pooled human plasma potassium EDTA anticoagulant (K2EDTA, BioIVT, West Sussex, U.K.) from healthy controls was used as a matrix for the preparation of calibration standards during the clinical sample analysis.

CCK1 receptor (CCK1R) = details: statement of the introduction; cited from earlier work
Description: Post-translational processing of preproCCK (ppCCK), including tyrosine-sulfation in the trans-Golgi network and subsequent proteolytic cleavage by prohormone convertases and carboxypeptidase E combined with C-terminal amidation by peptidylglycine α-amidating monooxygenase[5],[6] produces a number of different bioactive CCK peptides (Figure 1). For activation of the CCK1 receptor (CCK1R), which largely mediates the peripheral outcomes described above, sulfation of the CCK peptide is critical, and the bioactive products of ppCCK, named after the number of amino acids retained in the final produc ...

[3] = tested on: cholecystokinin (CCK8) (26–33), non-sulfated enzyme immunoassay kit; experiment: Commercial CCK8 enzyme immunoassay (EK-069-04, Phoenix Peptide): detection and cross-reactivity; type: binding; details: 50 to 750 pg/mL spiked in secretion buffer, SPE eluate dried and reconstituted in EIA buffer
Description: as §1
We compared the performance of the LC-MS/MS method with a commercially available EIA (EK-069-04, Phoenix Peptide). CCK8 solutions were spiked at different concentrations either alone or in the presence of ppCCK(21–44) into secretion buffer, duplicate samples were extracted as described, and prior to EIA analysis, the SPE eluates were dried under nitrogen and reconstituted in EIA buffer. The concentrations were deduced alongside either extracted calibration curves for LC-MS/MS analysis or non-extracted standard curves as supplied in the EIA kit.

Compound: C=C[C@@]1(C)CC(=O)[C@]2(O)[C@@]3(C)[C@@H](O)CCC(C)(C)[C@@H]3[C@H](O)[C@H](OC(C)=O)[C@@]2(C)O1 [forskolin]
fold stimulation of CCK8 and ppCCK(21–44) secretion [1]: ~2.3 fold

Compound: gastrin: closely related peptide hormone sharing the bioactive C-terminus with CCK8
cross-reactivity of the EIA kit [2]: 100% | activity at CCK1R (CCK1 receptor (CCK1R)): no activity

Compound: CCK33: 33 amino acid bioactive CCK isoform (KAPSGRMSIVKNLQNLDPSHRISDRDYMGWMDF-NH2; ends and bridges not checked; UniProt P06307 71-103, looked up)
cross-reactivity of the EIA kit [2]: 100%

Compound: non-sulfated CCK8: CCK8 without tyrosine sulfate, cross-reactant of the EIA kit
cross-reactivity of the EIA kit [2]: 100%

detection by EIA [3]: did not detect
Compound: [Pyr]-QPVPPADPAGSGLQRAEEAPRRQL-acid [ppCCK(21–44), N-terminal peptide fragment of proCCK, surrogate analyte for CCK secretion]
